In patent publication US10028992B2, “Methods of treating muscular dystrophy” (BOARD OF REGENTS OF THE NEVADA SYSTEM OF HIGHER EDUCATION …, priority 2012, dated 2018):

Test system: α7 integrin promoter
Assay: muscle cell-based assay: α7βgal+/− myoblasts/myotubes, LacZ reporter, β-galactosidase cleavage of FDG
Set-up: species or system mouse
Conditions: Myotubes; for Results in a α7+/− β-galactosidase assay, Myotubes, 0.5 uM: compound at 0.5 uM; for Results in a α7+/− β-galactosidase assay, Myotubes, 1 uM: compound at 1 uM; for Results in a α7+/− β-galactosidase assay, Myotubes, 5 uM: compound at 5 uM; for Results in a α7+/− β-galactosidase assay, Myotubes, 10 uM: compound at 10 uM; for Results in a α7+/− β-galactosidase assay, Myotubes, 20 uM: compound at 20 uM; for Results in a α7+/− β-galactosidase assay, Myotubes, 40 uM: compound at 40 uM
Method in brief: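 Fluorescein generated from FDG by β-galactosidase reports α7 integrin promoter activity in differentiated myoblasts from α7+/− LacZ knock-in pups. Screening hits then went to dose-response, western blotting and a myostatin counterscreen.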

| SMILES | Results in a α7+/− β-galactosidase assay, Myotubes, 0.5 uM | Results in a α7+/− β-galactosidase assay, Myotubes, 1 uM | Results in a α7+/− β-galactosidase assay, Myotubes, 5 uM | Results in a α7+/− β-galactosidase assay, Myotubes, 10 uM | Results in a α7+/− β-galactosidase assay, Myotubes, 20 uM | Results in a α7+/− β-galactosidase assay, Myotubes, 40 uM |
| --- | --- | --- | --- | --- | --- | --- |
| CC(C)Oc1ccc(C(=O)/C=C2\C(=O)Nc3ccccc32)cc1 [drawing 323] | 0.1381 | 0.1721 | −0.09555 | −0.3062 | −0.7604 | −0.9215 |
| COc1ccc(NC(=O)C2(N(C(=O)Cn3nnnc3N)c3ccc(OC)cc3)CCCCC2)cc1 [drawing 324] | 0.05381 | 0.1378 | 0.2107 | −0.07457 | −0.3633 | −0.2285 |
| COc1ccc(CCNC(=O)Cn2nnc(C(=O)Nc3ccc(Br)cc3)c2N)cc1OC [drawing 325] | 0.151 | −0.08157 | −0.07294 | −0.05869 | −0.4709 | −0.3389 |
| CC1(C)Cc2c(cnn2-c2cccc(F)c2)C(NC(=O)CCc2cnccn2)C1 (stereo not drawn) [drawing 326] | 0.2586 | 0.1834 | −0.03061 | 0.09511 | −0.2257 | −0.2443 |
| O=C1Nc2ccccc2/C1=C/c1cccnc1 [drawing 327] | −0.03985 | 0.1859 | 0.1467 | 0.08556 | −0.2464 | −0.3705 |
| CNC(=O)CSc1nnc(-c2ccc3c(c2)OCO3)n1C [drawing 328] | 0.08818 | −0.1177 | 0.04868 | 0.07527 | −0.1599 | −0.2763 |
| Cc1ccccc1NC(=O)NCCCN1CCN(C)CC1 [drawing 329] | 0.0927 | 0.04605 | −0.02688 | −0.00108 | 0.01494 | −0.02803 |
| CC1(C)Cc2c(c(N3CCOCC3)nc3sc(C(=O)Nc4ccccc4)c(N)c23)CO1 [drawing 330] | 0.2661 | 0.1201 | −0.3453 | −0.3697 | 0.0827 | −0.164 |
| COc1ccc(N2CCN(C(=O)c3cc(C)on3)CC2)cc1 [drawing 331] | 0.1218 | 0.07329 | 0 .416848 | 0.01619 | −0.09449 | −0.06707 |
| CCOn1c(=O)c(-c2ccccc2)[n+]([O-])c2ccccc21 [drawing 332] | 0.2995 | 0.2794 | 0.2514 | 0.005171 | −0.0871 | −0.1572 |
| O=S(=O)(N/C(=N/C1CCCCC1)c1ccccc1F)c1ccccc1 [drawing 334] | 0.1113 | 0.07899 | 0.00127 | 0.03577 | −0.0234 | −0.0349 |
| CCCCNc1nnc(Cc2ccc(Cl)cc2)c(O)n1 [drawing 335] | 0.2647 | 0.1668 | −0.1354 | −0.08652 | −0.07223 | −0.1 |
| CC(C)CN(C(=O)c1cccc(Cl)c1)c1c(N)n(Cc2ccccc2)c(=O)[nH]c1=O [drawing 336] | 0.198 | 0.2672 | −0.02107 | 0.07176 | −0.1352 | −0.2545 |
| Cc1nc(O)nc(O)c1S(=O)(=O)Nc1ccc(F)cc1Cl [drawing 337] | 0.2345 | 0.05045 | 0.06886 | 0.09509 | −0.05815 | −0.1517 |
| Cc1nnc(-c2ccc(N3CCOCC3)c([N+](=O)[O-])c2)o1 [drawing 338] | 0.0728 | 0.1596 | −0.09085 | −0.1238 | 0.04847 | −0.1846 |
| Cc1cc(C)cc(OCC(=O)N/N=C/c2ccccn2)c1 [drawing 339] | 0.02382 | 0.1393 | 0.05474 | −0.09985 | 0.0109 | 0.02169 |
| O=C1Nc2ccccc2/C1=C/c1c[nH]c(-c2ccccc2)n1 [drawing 340] | 0.05652 | 0.1643 | 0.09489 | −0.07868 | −0.03697 | −0.06801 |
| O=C(c1ccccc1)N1CCN(S(=O)(=O)c2cccs2)CC1 [drawing 341] | 0.0882 | 0.04972 | 0.07204 | −0.06595 | −0.01414 | −0.06305 |
| COc1ccccc1C(=O)Nc1ccnn1C1CCN(C(=O)c2ccoc2)CC1 [drawing 343] | 0.01341 | −0.07814 | 0.06946 | 0.05194 | −0.08844 | −0.04958 |
| CCOC(=O)c1nnn(-c2nonc2OC)c1-c1ccccc1 [drawing 344] | 0.0549 | 0.07612 | 0.1364 | 0.03578 | 0.0782 | −0.03173 |
| CC(C)(C)Nc1nc(-c2ccc3c(c2)CCN3C(=O)C2CC2)cs1 [drawing 345] | 0.1684 | 0.1611 | 0.06864 | 0.06011 | −0.1349 | −0.5189 |
| CCN(C(=O)c1ccc(S(=O)(=O)N(C)C)cc1)C(C)C(=O)Nc1ccc(C)cc1 (stereo not drawn) [drawing 348] | −0.152 | −0.2399 | −0.0943 | 0.05776 | −0.2237 | 0.02912 |
| COc1cc(NC(=O)OCc2ccccc2)c2ncccc2c1 [drawing 349] | 0.01764 | 0.03267 | −0.1098 | −0.05054 | −0.1951 | −0.2383 |
| Cc1ccc2c(c1)/C(=C/c1ccccc1C)C(=O)N2 [drawing 350] | −0.01581 | −0.0839 | −0.04071 | 0.0246 | −0.4093 | −0.6283 |
| O=C(NCCc1ccccc1)C1CCC(=O)N1C1CCCC1 (stereo not drawn) [drawing 351] | 0.05429 | −0.1351 | 0.08688 | 0.1206 | −0.1635 | −0.1123 |
